Measurements published in ChEMBL document CHEMBL1201862, “PubChem BioAssay data set” (2004).
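Protocol summary: plate cells (96-well), add compound at 5 concentrations, incubate 48 h, interpolate endpoints linearly. GI50 = concentration required for 50% inhibition of growth.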 The source made the active and inactive calls. Rule as the data show it: active = GI50 up to about 1.1 µM and inactive = higher.

Columns and labels:
Assay in all cases: DTP human tumour cell line panel, 48 h
786-0 = tested on: 786-0
A498 = tested on: A498
A549 = tested on: A549
ACHN = tested on: ACHN
CAKI-1 = tested on: CAKI-1
CCRF-CEM = tested on: CCRF-CEM
COLO 205 = tested on: COLO 205
DLD-1 = tested on: DLD-1
DMS-114 = tested on: DMS-114
DMS-273 = tested on: DMS-273
EKVX = tested on: EKVX
HCC 2998 = tested on: HCC 2998
HCT-116 = tested on: HCT-116
HCT-15 = tested on: HCT-15
HL-60 = tested on: HL-60
HOP-18 = tested on: HOP-18
HOP-62 = tested on: HOP-62
HOP-92 = tested on: HOP-92
HT-29 = tested on: HT-29
IGROV-1 = tested on: IGROV-1
K562 = tested on: K562
KM-20L2 = tested on: KM-20L2
KM12 = tested on: KM12
LOX IMVI = tested on: LOX IMVI
LXFL 529 = tested on: LXFL 529
M14 = tested on: M14
M19-MEL = tested on: M19-MEL
MOLT-4 = tested on: MOLT-4
Malme-3M = tested on: Malme-3M
NCI-H226 = tested on: NCI-H226
NCI-H23 = tested on: NCI-H23
NCI-H460 = tested on: NCI-H460
NCI-H522 = tested on: NCI-H522
OVCAR-3 = tested on: OVCAR-3
OVCAR-4 = tested on: OVCAR-4
OVCAR-5 = tested on: OVCAR-5
OVCAR-8 = tested on: OVCAR-8
RPMI-8226 = tested on: RPMI-8226
RXF 393 = tested on: RXF 393
RXF 631 = tested on: RXF 631
SF-268 = tested on: SF-268
SF-295 = tested on: SF-295
SF-539 = tested on: SF-539
SK-MEL-28 = tested on: SK-MEL-28
SK-MEL-2 = tested on: SK-MEL-2
SK-MEL-5 = tested on: SK-MEL-5
SK-OV-3 = tested on: SK-OV-3
SN12C = tested on: SN12C
SNB-19 = tested on: SNB-19
SNB-75 = tested on: SNB-75
SNB-78 = tested on: SNB-78
SR = tested on: SR
SW-620 = tested on: SW-620
TK-10 = tested on: TK-10
U-251 = tested on: U-251
UACC-257 = tested on: UACC-257
UACC-62 = tested on: UACC-62
UO-31 = tested on: UO-31
XF498 = tested on: XF498

C[C@]12CCC(=O)C=C1CC[C@@H]1[C@@H]2CC[C@]2(C)C(=O)NC(=O)C[C@@H]12
GI50 (786-0): > 100 µM (inactive) | GI50 (A498): > 100 µM (inactive) | GI50 (A549): > 100 µM (inactive) | GI50 (ACHN): > 100 µM (inactive) | GI50 (CAKI-1): > 100 µM (inactive) | GI50 (CCRF-CEM): > 100 µM (inactive) | GI50 (COLO 205): > 100 µM (inactive) | GI50 (DLD-1): > 100 µM (inactive) | GI50 (DMS-114): > 100 µM (inactive) | GI50 (DMS-273): > 100 µM (inactive) | GI50 (EKVX): > 100 µM (inactive) | GI50 (HCC 2998): > 100 µM (inactive) | GI50 (HCT-116): > 100 µM (inactive) | GI50 (HCT-15): > 100 µM | GI50 (HL-60): > 100 µM (inactive) | GI50 (HOP-18): > 100 µM (inactive) | GI50 (HOP-62): > 100 µM (inactive) | GI50 (HOP-92): > 100 µM (inactive) | GI50 (HT-29): > 100 µM (inactive) | GI50 (IGROV-1): > 100 µM (inactive) | GI50 (K562): > 100 µM (inactive) | GI50 (KM-20L2): > 100 µM (inactive) | GI50 (KM12): > 100 µM (inactive) | GI50 (LOX IMVI): > 100 µM (inactive) | GI50 (LXFL 529): > 100 µM (inactive) | GI50 (M14): > 100 µM (inactive) | GI50 (M19-MEL): > 100 µM (inactive) | GI50 (MOLT-4): > 100 µM (inactive) | GI50 (Malme-3M): > 100 µM (inactive) | GI50 (NCI-H226): > 100 µM (inactive) | GI50 (NCI-H23): > 100 µM (inactive) | GI50 (NCI-H460): > 100 µM (inactive) | GI50 (NCI-H522): > 100 µM (inactive) | GI50 (OVCAR-3): > 100 µM (inactive) | GI50 (OVCAR-4): > 100 µM (inactive) | GI50 (OVCAR-5): > 100 µM (inactive) | GI50 (OVCAR-8): > 100 µM (inactive) | GI50 (RPMI-8226): > 100 µM (inactive) | GI50 (RXF 393): > 100 µM (inactive) | GI50 (RXF 631): > 100 µM (inactive) | GI50 (SF-268): > 100 µM (inactive) | GI50 (SF-295): > 100 µM (inactive) | GI50 (SF-539): > 100 µM (inactive) | GI50 (SK-MEL-28): > 100 µM (inactive) | GI50 (SK-MEL-2): > 100 µM (inactive) | GI50 (SK-MEL-5): > 100 µM (inactive) | GI50 (SK-OV-3): > 100 µM (inactive) | GI50 (SN12C): > 100 µM (inactive) | GI50 (SNB-19): > 100 µM (inactive) | GI50 (SNB-75): > 100 µM (inactive) | GI50 (SNB-78): > 100 µM (inactive) | GI50 (SR): > 100 µM (inactive) | GI50 (SW-620): > 100 µM (inactive) | GI50 (TK-10): > 100 µM (inactive) | GI50 (U-251): > 100 µM (inactive) | GI50 (UACC-257): > 100 µM (inactive) | GI50 (UACC-62): > 100 µM (inactive) | GI50 (UO-31): > 100 µM (inactive) | GI50 (XF498): > 100 µM (inactive)

CCNC(=O)C#CC(=O)NCC
GI50 (786-0): > 100 µM (inactive) | GI50 (A498): > 10 µM (inactive) | GI50 (A549): > 60.5 µM (inactive) | GI50 (ACHN): > 100 µM (inactive) | GI50 (CAKI-1): > 100 µM (inactive) | GI50 (CCRF-CEM): > 46.1 µM (inactive) | GI50 (COLO 205): 44.6 µM (inactive) | GI50 (DLD-1): > 46.1 µM (inactive) | GI50 (DMS-114): > 72.3 µM (inactive) | GI50 (DMS-273): 17.8 µM (inactive) | GI50 (EKVX): > 100 µM (inactive) | GI50 (HCC 2998): > 100 µM (inactive) | GI50 (HCT-116): 21.9 µM (inactive) | GI50 (HCT-15): > 42.6 µM | GI50 (HL-60): > 39.5 µM (inactive) | GI50 (HOP-18): > 100 µM (inactive) | GI50 (HOP-62): > 100 µM (inactive) | GI50 (HOP-92): > 100 µM (inactive) | GI50 (HT-29): > 100 µM (inactive) | GI50 (IGROV-1): > 100 µM (inactive) | GI50 (K562): > 45.3 µM (inactive) | GI50 (KM-20L2): > 100 µM (inactive) | GI50 (KM12): > 100 µM (inactive) | GI50 (LOX IMVI): > 83.9 µM (inactive) | GI50 (LXFL 529): > 93.8 µM (inactive) | GI50 (M14): > 100 µM (inactive) | GI50 (M19-MEL): > 100 µM (inactive) | GI50 (MOLT-4): > 100 µM (inactive) | GI50 (Malme-3M): > 10 µM (inactive) | GI50 (NCI-H226): > 10 µM (inactive) | GI50 (NCI-H23): > 100 µM (inactive) | GI50 (NCI-H460): > 100 µM (inactive) | GI50 (NCI-H522): > 31.1 µM (inactive) | GI50 (OVCAR-3): > 100 µM (inactive) | GI50 (OVCAR-4): > 100 µM (inactive) | GI50 (OVCAR-5): > 100 µM (inactive) | GI50 (OVCAR-8): > 100 µM (inactive) | GI50 (RPMI-8226): > 42.4 µM (inactive) | GI50 (RXF 393): > 10 µM (inactive) | GI50 (RXF 631): > 100 µM (inactive) | GI50 (SF-268): 53.7 µM (inactive) | GI50 (SF-295): > 100 µM (inactive) | GI50 (SF-539): > 100 µM (inactive) | GI50 (SK-MEL-28): > 10 µM (inactive) | GI50 (SK-MEL-2): > 100 µM (inactive) | GI50 (SK-MEL-5): > 100 µM (inactive) | GI50 (SK-OV-3): > 100 µM (inactive) | GI50 (SN12C): > 100 µM (inactive) | GI50 (SNB-19): > 100 µM (inactive) | GI50 (SNB-75): > 69 µM (inactive) | GI50 (SNB-78): > 10 µM (inactive) | GI50 (SR): > 41.9 µM (inactive) | GI50 (SW-620): > 48 µM (inactive) | GI50 (TK-10): > 100 µM (inactive) | GI50 (U-251): > 91.4 µM (inactive) | GI50 (UACC-257): > 100 µM (inactive) | GI50 (UACC-62): > 100 µM (inactive) | GI50 (UO-31): > 100 µM (inactive) | GI50 (XF498): > 100 µM (inactive)

Cn1c2c([N+](=O)[O-])[se]nc2c(=O)n1-c1ccc([N+](=O)[O-])cc1
GI50 (786-0): 2.44 µM (inactive) | GI50 (A498): 11.4 µM (inactive) | GI50 (A549): 7.24 µM (inactive) | GI50 (ACHN): 1.95 µM (inactive) | GI50 (CAKI-1): 1.94 µM (inactive) | GI50 (CCRF-CEM): 0.627 µM (active) | GI50 (COLO 205): 1.67 µM (inactive) | GI50 (DLD-1): 0.746 µM (active) | GI50 (DMS-114): 0.254 µM (active) | GI50 (DMS-273): 2.5 µM (inactive) | GI50 (EKVX): 2.38 µM (inactive) | GI50 (HCC 2998): 1.74 µM (inactive) | GI50 (HCT-116): 0.887 µM (active) | GI50 (HCT-15): 1.25 µM | GI50 (HL-60): 0.615 µM (active) | GI50 (HOP-18): 2.82 µM (inactive) | GI50 (HOP-62): 3.97 µM (inactive) | GI50 (HOP-92): 1.63 µM (inactive) | GI50 (HT-29): 2.74 µM (inactive) | GI50 (IGROV-1): 1.29 µM (inactive) | GI50 (K562): 0.0664 µM (active) | GI50 (KM-20L2): 6.9 µM (inactive) | GI50 (KM12): 4.51 µM (inactive) | GI50 (LOX IMVI): 2.61 µM (inactive) | GI50 (LXFL 529): 1.25 µM (inactive) | GI50 (M14): 1.29 µM (inactive) | GI50 (Malme-3M): 1.75 µM (inactive) | GI50 (NCI-H226): 2.96 µM (inactive) | GI50 (NCI-H23): 1.98 µM (inactive) | GI50 (NCI-H460): 2.31 µM (inactive) | GI50 (NCI-H522): 1.7 µM (inactive) | GI50 (OVCAR-3): 1.73 µM (inactive) | GI50 (OVCAR-4): 0.447 µM (active) | GI50 (OVCAR-5): 2.12 µM (inactive) | GI50 (OVCAR-8): 1.02 µM (active) | GI50 (RPMI-8226): 1.82 µM (inactive) | GI50 (RXF 393): 0.665 µM (active) | GI50 (RXF 631): 1.5 µM (inactive) | GI50 (SF-268): 2.21 µM (inactive) | GI50 (SF-295): 3.13 µM (inactive) | GI50 (SF-539): 1.88 µM (inactive) | GI50 (SK-MEL-28): 2.11 µM (inactive) | GI50 (SK-MEL-2): 3.34 µM (inactive) | GI50 (SK-MEL-5): 4.43 µM (inactive) | GI50 (SK-OV-3): 2.72 µM (inactive) | GI50 (SN12C): 1.71 µM (inactive) | GI50 (SNB-19): 6.01 µM (inactive) | GI50 (SNB-75): 4.03 µM (inactive) | GI50 (SNB-78): 1.99 µM (inactive) | GI50 (SR): 0.0474 µM (active) | GI50 (SW-620): 0.357 µM (active) | GI50 (TK-10): 7.55 µM (inactive) | GI50 (U-251): 2.51 µM (inactive) | GI50 (UACC-257): 1.96 µM (inactive) | GI50 (UACC-62): 1.6 µM (inactive) | GI50 (UO-31): 1.91 µM (inactive) | GI50 (XF498): 2.26 µM (inactive)
